Biological target: T1, M71 OR (Mus musculus, UniProt Q60893)
T1 construct: the increase of OSNs expressing the M71 OR results in the coalescence of labeled axons; expressed in transfected cells; host or cells: olfactory sensory neurons of living transgenic mice (4•M71Cα, 5•M71Cα), made by pronuclear injection of the M71 minigene
T1 sequence (Q60893 1-309): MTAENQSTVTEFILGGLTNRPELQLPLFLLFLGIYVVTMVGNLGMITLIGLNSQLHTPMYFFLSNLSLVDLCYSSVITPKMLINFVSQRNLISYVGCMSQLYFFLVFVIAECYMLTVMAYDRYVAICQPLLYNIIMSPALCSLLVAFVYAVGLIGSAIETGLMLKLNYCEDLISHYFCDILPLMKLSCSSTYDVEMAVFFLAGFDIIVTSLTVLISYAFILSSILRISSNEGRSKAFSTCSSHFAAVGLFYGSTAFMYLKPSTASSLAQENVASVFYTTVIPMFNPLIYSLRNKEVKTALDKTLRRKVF
Test: In vivo synaptophluorin (SpH) imaging of odor-evoked glomerular activity in 4•M71Cα mice
Conditions: for efficacy [(dF/F)max]: 0.44 uM
Text: Because the M71 OR is dorsally expressed in the olfactory bulb, any cloned OR using the M71 transgenic backbone will coalesce its axons onto dorsally located glomeruli, which makes them accessible for optical imaging. Optical imaging was therefore used to functionally characterize transgenic M71 projections in the OB. To examine their functional properties odor-evoked activity was imaged from the OBs of mice expressing the genetically encoded activity reporter SpH in all mature OSNs. Simultaneously recordings were obtained from mice that are either hemizygous or homozygous for 4•M71Cα (gene-targeted M71-GFP is out crossed) and heterozygous for SpH and identify red M71 glomeruli. Seven different M71-selective ligands were used from ex vivo analysis of genetically defined M71 OSNs in gene-targeted mice: three of these ligands produced responses by SpH imaging: Acetophenone (ACP), 4-methyl acetophenone (4MACP) and 2,4-dimethyl acetophenone (24dMACP) when delivered at different odor dilutions varying between 0% and 15%. The maximum change in fluorescence [(dF/F)max] per odor concentration was calculated for each compound over a 14 s trial period having a pre-odor (3 s), odor (4 s) and post-odor (4 s) acquisition. dF/F values for all glomeruli were calculated with a standardized 50 μm window, which is fully contained in all imaged glomeruli of both hemi and homo 4•M71Cα animals. (FIG. 2A, FIG. 2B and FIG. 2C: Each data point represents the average (dF/F). of 4-16 glomeruli imaged). […] All imaged mice are heterozygous for omp-SpH.
Olfactometry: Odors (purchased form Sigma Aldrich) were delivered using a custom built olfactometer controlled by an Arduino board with custom shields operating Teflon solenoids (Neptune Research) and connected to two Mass Flow Controllers (Alicat Scientific, Inc) to dilute the clean air (N2, max flow is 2 Lpm) and to dilute the odorized air (max flow is 300 SCCM). Nitrogen (N2) was used as the vapor carrier to avoid oxidation. Odor concentrations are expressed a % dilutions of saturated vapor and as molar saturated vapor concentration (μM s.v.), calculated using published vapor pressures at 25° Celsius (US EPA, Estimation Programs Interface Suite, v 4.0. Flow diluted odors were delivered at 2 Lpm mixed prior to the delivery site with air odorized with varying dilutions of odorant taken from the saturated headspace of pre-cleaned amber vials with white polypropylene closures and septum (J. G. Finneran) containing 99% pure odorants. To avoid contamination of the olfactometer, odorized air was never passed through the Teflon valves. Instead, odors were mixed with N2 in T-shaped mixing chambers (Neptune Research) and delivered to the animal's nose using an arduino controlled vacuum system. […] Output of the olfactometer was calibrated using the tracer odor Pinene and a photoionization detector (PID; Aurora Scientific).
In vivo SpH Imaging: Mice were anesthetized using Ketamine (100 mg/kg)/Xylazin (5 mg/kg) and maintained with Isoflurane (2.5% in 02) and immobilized using a stereotactic head holding device (Narishige, Inc.). Optical signals for SpH and mCherry were recorded using an ANDOR Neo 5.5 sCMOS camera connected to a NIKON AZ100 epifluorescence microscope (NIS Elements) with a 4× objective (numerical aperture 0.4). Excitation wavelengths of 475 nm for SpH and 575 nm for mCherry and emission of 520 nm for SpH and 635 nm for mCherry were used to obtain images of the dorsolateral bulb through thinned skull overlaying the bulb of a freely breathing animal. Each imaging trial consisted of a pre-odor (3 s), odor (4 s) and post-odor (4 s) acquisition, with a total acquisition time per trial of 14 s (including 3 s of valve switch delay). Using serial code, the arduino controlling the olfactometer was integrated in the NIS Elements software, so that the entire image acquisition sequence and flow-diluted odor delivery is controlled by the microscope software. […]

CC(=O)c1ccc(C)cc1C [24dMACP, 2,4-dimethyl acetophenone]
glomerular activity (in vivo SpH imaging) (4•M71Cα animals, vapor phase, odor dilutions 0% to 15%): observed | average highest (dF/F)max (hemizygous 4•M71Cα animals, ACP at 1.77 uM, 4MACP at 0.69 uM, 24dMACP at 0.66 uM): 4.15% | efficacy [(dF/F)max] (hemizygous animals): 2.92% | efficacy [average (dF/F)max] (hemizygous animals, delivered at the same concentration, ˜0.70 uM): 4.15% | highest efficacy [(dF/F)max] (homozygous 4•M71Cα animals, ACP at 2.66 uM, 4MACP at 0.69 uM, 24dMACP at 0.46 uM): 4.92% | average efficacy (of all concentrations and odors) (homozygous animals): 4.92% | efficacy [(dF/F)max] (homozygous animals): 4.92%
